Earlier results as cited in EP0984012A2, “Nitric oxide releasing oxindole prodrugs with analgesic and anti-inflammatory properties” (Pfizer Products Inc., priority 1998, dated 2000).

Tests used:
[1] = system: experimental gastric ulcers; settings: rat, daily treatment
[2] = administered on both an acute and a chronic basis; versus parent NSAID
[3] = animal models of acute and chronic inflammation; versus parent NSAID

Structure (SMILES) | healing of experimental gastric ulcers [1] | gastric injury [2] | anti-inflammatory activity [3] | mitochondrial damage (small intestine; in vivo) | macroscopic damage in the small intestine (small intestine; rats, versus flurbiprofen)
O=[N+]([O-])OCC(CO[N+](=O)[O-])O[N+](=O)[O-] [glyceryl trinitrate] | accelerated | – | – | – | –
CC(C(=O)OCCCCO[N+](=O)[O-])c1cccc(C(=O)c2ccccc2)c1 (stereo not drawn) [ketoprofen nitroxybutylester] | – | markedly less gastric injury than that produced by their parent NSAIDs | comparable to that of their parent NSAIDs | – | –
O=C(O)Cc1ccccc1Nc1c(Cl)cccc1Cl [diclofenac] | no effect | – | – | – | –
COc1ccc2cc(CCC(C)=O)ccc2c1 [nabumetone] | no effect | – | – | – | –
O=C(Cc1ccccc1Nc1c(Cl)cccc1Cl)OCCCCO[N+](=O)[O-] [nitrofenac, diclofenac-4-nitroxybutylester] | accelerated | markedly less gastric injury than that produced by their parent NSAIDs | comparable to that of their parent NSAIDs | – | –
CC(C(=O)OCCCCO[N+](=O)[O-])c1ccc(-c2ccccc2)c(F)c1 (stereo not drawn) [flurbiprofen nitroxybutylester] | – | markedly less gastric injury than that produced by their parent NSAIDs | comparable to that of their parent NSAIDs | associated with mitochondrial damage in vivo | significantly less macroscopic damage in the small intestine than flurbiprofen
